Experimental data reported in ChEMBL document CHEMBL1141570, “Glycosidase profiling with immobilised glycosidase-inhibiting iminoalditols--a proof-of-concept study” (Bioorg Med Chem Lett, 2008).
pKi: −log10 of the molar value.

Target: T1, Beta-glucosidase (Agrobacterium sp. ATCC 21400, UniProt P12614)
T1 sequence (P12614 whole entry): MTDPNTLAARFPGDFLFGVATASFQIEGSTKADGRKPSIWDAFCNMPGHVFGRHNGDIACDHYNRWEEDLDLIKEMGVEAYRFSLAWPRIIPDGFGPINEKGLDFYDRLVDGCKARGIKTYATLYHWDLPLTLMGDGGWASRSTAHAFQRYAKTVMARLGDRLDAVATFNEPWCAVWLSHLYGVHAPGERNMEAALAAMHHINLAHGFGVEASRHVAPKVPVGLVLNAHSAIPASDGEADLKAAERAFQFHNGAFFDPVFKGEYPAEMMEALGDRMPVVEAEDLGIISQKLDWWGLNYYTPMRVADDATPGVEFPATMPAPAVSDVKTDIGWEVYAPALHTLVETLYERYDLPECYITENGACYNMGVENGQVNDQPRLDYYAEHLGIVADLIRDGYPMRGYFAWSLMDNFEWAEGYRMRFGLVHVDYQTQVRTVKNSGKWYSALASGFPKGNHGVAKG
Assay: Inhibition of Agrobacterium sp. beta-glucosidase

Q: How did the pKi turn out when COC(=O)CCCCCNC(=O)[C@H](CCCCN1C[C@@H](O)[C@@H](O)[C@H](O)[C@H]1CO)NS(=O)(=O)c1cccc2c(N(C)C)cccc12 was run?
A: 3.00

Q: COC(=O)CCCCCNC(=O)CCCCCN1[C@H](CO)[C@@H](O)[C@H](O)[C@H]1CNS(=O)(=O)c1cccc2c(N(C)C)cccc12 was tested. Which pKi did it give?
A: 6.05

Q: With COC(=O)CCCCCNC(=O)[C@H](CCCCN1C[C@H](O)[C@@H](O)[C@H](O)[C@H]1CO)NS(=O)(=O)c1cccc2c(N(C)C)cccc12 as the molecule, how does the pKi read?
A: 5.21
